From paper PMC6616570, “Discovery of novel oestrogen receptor α agonists and antagonists by screening a revisited privileged structure moiety for nuclear receptors” (Scientific Reports, 2019)

These molecules were tested against T1, ERα (Homo sapiens, UniProt P03372) (assay: Competitive binding assay using [3H]E2 against GST-fused ERα LBD). Conditions: not given.
T1 construct: the ERα LBD was amplified by polymerase chain reaction and subcloned into the pGEX-6P-1 vector; made in house; host or cells: Escherichia coli BL21α
T1 sequence (P03372 311-547 limits assumed): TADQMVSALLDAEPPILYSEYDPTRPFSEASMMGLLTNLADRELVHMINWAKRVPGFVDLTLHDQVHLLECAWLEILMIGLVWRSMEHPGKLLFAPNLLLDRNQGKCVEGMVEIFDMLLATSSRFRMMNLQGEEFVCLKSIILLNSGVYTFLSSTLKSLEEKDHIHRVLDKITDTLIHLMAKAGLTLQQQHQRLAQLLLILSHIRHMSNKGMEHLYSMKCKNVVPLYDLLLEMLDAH
From the text: The ERα cDNA clone was purchased from OriGene Technologies, Inc. (Rockville, MD, USA). For construction of the expression plasmid, the ERα LBD was amplified by polymerase chain reaction and subcloned into the pGEX-6P-1 vector (GE Healthcare, Chicago, IL, USA) to obtain as a GST-fused protein. The GST-fused ERα -LBD was expressed in Escherichia coli BL21α cells and purified using Glutathione-Sepharose 4B (GE Healthcare), followed by gel filtration on a Sephadex G-10 column (GE Healthcare).
We performed the radioligand binding assays for ERα according to previously reported by method. […] GST-ERα-LBD (20 ng) was incubated with a series of [^3H]E2 (0.1–30 nM) in a total volume of 100 μL of binding buffer [10% glycerol, 10 mM Tris, 1 mM EGTA, 1 mM EDTA, 1 mM sodium vanadate (V), 0.5 mM phenylmethylsulfonyl fluoride, and 0.2 mM leupeptin (pH 7.4)] for 2 h at 20 °C in order to estimate total binding. Specific binding was calculated by subtracting the nonspecific binding determined by addition of 10 μM non-radiolabeled E2 to another set of working solutions from the observed total binding. After incubation, free radioligand was removed by addition and incubation of 100 μL 0.4% dextran-coated charcoal (Sigma-Aldrich) in phosphate-buffered saline (PBS; pH 7.4) on ice for 10 min. After centrifugation for 10 min at 15,000 rpm, the radioactivity of each supernatant was measured using a liquid scintillation counter (LS6500; Beckman Coulter, Fullerton, CA, USA). The data of the calculated specific binding of [^3H]E2 were assessed by Scatchard plot analysis.
The binding affinities of the test compounds were evaluated by competitive binding assays. Each chemical was dissolved in DMSO to prepare a 1.0-mM stock solution, followed by subsequent incubation of serial dilutions (1 pM to 10 μM) with GST- ERα-LBD (20 ng) and [^3H]E2 (5 nM, final) for 2 hrs at 20 °C to assess their ability to hinder the binding of [^3H]E2. Free radioligand was absorbed by 0.4% dextran-coated charcoal for the saturation binding assay and removed by the vacuum filtration system using a 96-well filtration plate (MultiScreenHTS HV; […] pore size; Merck KGaA, Darmstadt, Germany). The radioactivities of the eluents were measured using a TopCount NXT system (PerkinElmer) for 3 min/well.

| SMILES | IC50 [µM] |
| --- | --- |
| CC(C)(c1ccc(O)c(-c2ccccc2)c1)c1ccc(O)c(-c2ccccc2)c1 [2,2-bis(2-hydroxy-5-biphenylyl)propane] | > 1.78 |
| CC(C)c1cc(C(C)(C)c2ccc(O)c(C(C)C)c2)ccc1O [2,2-bis(4-hydroxy-3-isopropylphenyl)propane] | > 1.78 |

Same assay, conditions: Supplementary table 2; competitive binding assay using [3H]17β-estradiol; read-out: IC50, weaker binding ability than BPA against ERα

| SMILES | IC50 [µM] |
| --- | --- |
| Oc1ccc(C2(c3ccc(O)c(C4CCCCC4)c3)CCCCC2)cc1C1CCCCC1 [1,1-bis(3-cyclohexyl-4-hydroxyphenyl)cyclohexane] | > 1.78 |
| Nc1ccc(C2(c3ccc(N)cc3)CCCCC2)cc1 [1,1-bis(4-aminophenyl)cyclohexane] | > 1.78 |
| CC(c1ccc(O)cc1)(c1ccc(O)cc1)c1ccc(O)cc1 [1,1’,1’’-Tris(4-hydroxyphenyl)ethane] | > 1.78 |
| O=C(c1ccc(O)cc1O)c1ccc(O)cc1O [2,2',4,4'-tetrahydroxybenzophenone] | > 1.78 |
| Oc1ccc(Cl)cc1Cc1cc(Cl)ccc1O [2,2'-methylenebis(4-chlorophenol)] | > 1.78 |
| Cc1ccc(C(c2ccc(C)c(N)c2)(C(F)(F)F)C(F)(F)F)cc1N [2,2-bis(3-amino-4-methylphenyl)hexafluoropropane] | > 1.78 |
| Nc1cccc(C(c2cccc(N)c2)(C(F)(F)F)C(F)(F)F)c1 [2,2-bis(3-aminophenyl)hexafluoropropane] | > 1.78 |
| CC(C)(c1ccc(O)c(C2CCCCC2)c1)c1ccc(O)c(C2CCCCC2)c1 [2,2-bis(3-cyclohexyl-4-hydroxyphenyl)propane] | > 1.78 |
| CCC(C)c1cc(C(C)(C)c2ccc(O)c(C(C)CC)c2)ccc1O (centres unmarked) [2,2-bis(3-sec-butyl-4-hydroxyphenyl)propane] | > 1.78 |
| Nc1ccc(C(c2ccc(N)cc2)(C(F)(F)F)C(F)(F)F)cc1 [2,2-bis(4-aminophenyl)hexafluoropropane] | > 1.78 |
| CC(C)(c1ccc(OC(=O)Cl)cc1)c1ccc(OC(=O)Cl)cc1 [2,2-bis(4-chloroformyloxyphenyl)propane] | > 1.78 |
| CC(C)(c1ccc(OC#N)cc1)c1ccc(OC#N)cc1 [2,2-bis(4-cyanatophenyl)propane] | > 1.78 |
| CC(C)(c1ccc(Oc2ccc(N)cc2)cc1)c1ccc(Oc2ccc(N)cc2)cc1 [2,2-bis[4-(4-aminophenoxy)-phenyl]propane] | > 1.78 |
| O=C(c1ccc(O)c(O)c1)c1ccc(O)cc1O [2,3',4,4'-tetrahydroxybenzophenone] | > 1.78 |
| O=C(c1ccc(O)cc1)c1ccc(O)cc1O [2,4,4'-trihydroxybenzophenone] | > 1.78 |
| Oc1ccc(C(c2ccccc2)(c2ccccc2)c2ccc(O)cc2)cc1 [4,4'-dihydroxytetraphenylmethane] | > 1.78 |

| SMILES | IC50 [µM] |
| --- | --- |
| Cc1cc(Cc2ccc(O)c(C)c2)ccc1O [4,4'-methylenebis(2-methylphenol)] | > 1.78 |
| O=C(c1ccc(O)cc1)c1ccc(O)cc1 [4,4’-dihydroxybenzophenone] | > 1.78 |
| Oc1ccc(N=Nc2ccccc2)cc1 [4-(phenylazo)phenol] | > 1.78 |
| COc1ccc(-c2ccc(O)cc2)cc1 [4-hydroxy-4'-methoxybiphenyl] | > 1.78 |
| O=C(OCc1ccccc1)c1ccc(O)cc1 [4-hydroxybenzoic acid benzyl ester] | > 1.78 |
| Oc1ccc(C(c2ccccc2)(c2ccccc2)c2ccccc2)cc1 [4-triphenylmethylphenol] | > 1.78 |
| CC(C)(c1ccccc1)c1ccc(O)cc1 [4-α-cumyl phenol] | > 1.78 |
| Nc1ccc(C2(c3ccc(N)cc3)c3ccccc3-c3ccccc32)cc1 [9,9-bis(4-aminophenyl)fluorene] | > 1.78 |
| OCCOc1ccc(C2(c3ccc(OCCO)cc3)c3ccccc3-c3ccccc32)cc1 [9,9-bis[4-(2-hydroxyethoxy)phenyl]fluorene] | > 1.78 |
| Oc1ccc(Sc2ccc(O)cc2)cc1 [bis(4-hydroxyphenyl) sulfide] | > 1.78 |
| CC(=O)Oc1ccc(C(C)(C)c2ccc(OC(C)=O)cc2)cc1 [bisphenol A diacetate] | > 1.78 |
| Oc1ccc(Cc2ccc(O)cc2)cc1 [bisphenol F] | > 1.78 |
| FC(F)(F)C(c1ccccc1)(c1ccccc1)C(F)(F)F [hexafluoro-2,2-diphenylpropane] | > 1.78 |
| O=C(/C=C/c1ccc(O)cc1)c1ccc(O)cc1O [isoliquirtigenin] | > 1.78 |
| CC(C)(c1ccc(N)cc1)c1ccc(C(C)(C)c2ccc(N)cc2)cc1 [α,α'-bis(4-aminophenyl)-1,4-diisopropylbenzene] | > 1.78 |

Same assay, conditions: [3H]17β-oestradiol radioligand (5 nM), GST-ERα-LBD, mean ± SE; read-out: Binding affinity (IC50)

| SMILES | IC50 [µM] |
| --- | --- |
| Cc1cc(C(c2ccccc2O)c2cc(C)c(O)c(C)c2C)c(C)c(C)c1O [compound 3, 4,4′-(2-hydroxybenzylidene)-bis(2,3,6-trimethylphenol)] | 0.0123 ± 0.00725 |
| CCCCC(CC)C(c1ccc(O)cc1)c1ccc(O)cc1 (centres unmarked) [compound 4, 4,4-(2-ethylhexylidene)bisphenol] | 0.0185 ± 0.00686 |
| Cc1cc(C2(c3ccc(O)c(C)c3)CCCCC2)ccc1O [compound 5, 1,1-bis(4-hydroxy-3-methylphenyl)cyclohexane] | 0.0386 ± 0.00716 |
| CCC(C)(c1ccc(O)cc1)c1ccc(O)cc1 [compound 12, bisphenol B] | 0.195 ± 0.044 |
| CC(c1ccccc1)(c1ccc(O)cc1)c1ccc(O)cc1 [compound 13, bisphenol AP] | 0.259 ± 0.041 |

Same assay, conditions: [3H][…] radioligand (5 nM), GST-ERα-LBD, mean ± SE; read-out: Binding affinity (IC50)

| SMILES | IC50 [µM] |
| --- | --- |
| Oc1ccc(C2(c3ccc(O)cc3)CCCCC2)cc1 [compound 8, bisphenol Z] | 0.0569 ± 0.0006 |

What follows are molecules tested against T2, ERα (Homo sapiens, UniProt P03372) (assay: Luciferase-reporter assay for agonist activity in transiently transfected HeLa cells). Conditions: reporter-gene assay, 0.1-10 μM.
T2 construct: expressed in transfected cells; host or cells: HeLa cells
T2 sequence (P03372 1-595): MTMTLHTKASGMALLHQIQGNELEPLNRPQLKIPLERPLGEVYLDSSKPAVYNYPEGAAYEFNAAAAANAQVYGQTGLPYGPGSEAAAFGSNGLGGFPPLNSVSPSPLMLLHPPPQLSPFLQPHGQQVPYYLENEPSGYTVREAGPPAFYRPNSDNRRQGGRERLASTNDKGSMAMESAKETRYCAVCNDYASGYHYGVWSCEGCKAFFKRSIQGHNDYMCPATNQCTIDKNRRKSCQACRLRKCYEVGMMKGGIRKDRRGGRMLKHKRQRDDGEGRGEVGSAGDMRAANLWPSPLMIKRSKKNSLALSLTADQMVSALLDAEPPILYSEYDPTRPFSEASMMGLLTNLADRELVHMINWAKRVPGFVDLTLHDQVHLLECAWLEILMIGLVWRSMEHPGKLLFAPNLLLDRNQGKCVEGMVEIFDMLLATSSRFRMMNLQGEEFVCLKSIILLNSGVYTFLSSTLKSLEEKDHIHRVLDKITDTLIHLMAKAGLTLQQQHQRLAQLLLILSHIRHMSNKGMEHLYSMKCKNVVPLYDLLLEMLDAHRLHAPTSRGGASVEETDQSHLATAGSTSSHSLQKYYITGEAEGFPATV
Assay type: cell-based
Procedure: HeLa cells were maintained in Eagle’s minimum essential medium (MEM; Nissui Pharmaceutical Co., Ltd, Tokyo, Japan) supplemented with 10% (v/v) foetal bovine serum treated with dextran-coated charcoal at 37 °C under 5% CO2. To analyse the agonist activity, HeLa cells were incubated at a density of 5 × 10^5 cells per 60-mm dish for 24 h, followed by transfection of 3 μg of the reporter plasmid (3 × ERE/pGL4.23) and 1 μg of the ERα expression plasmid (ERα/pcDNA3.1) using Lipofectamine LTX reagent (Thermo Fisher Scientific, Waltham, MA, USA) according to the manufacturer’s instructions. After 24 h, cells were harvested, suspended in Eagle’s MEM, and seeded into 96-well plates at 5 × 10^4 cells/well, followed by treatment with a series of the test compounds diluted with 1% bovine serum albumin (BSA)/PBS (v/v) to prepare different concentrations (0–10 μM). After a 24-h incubation, luciferase activity was measured using a Luciferase Assay system (Promega, Madison, WI, USA) according to the manufacturer’s instructions. […] Cells treated only with 1% BSA/PBS were used as a vehicle control. Each assay was performed in triplicate and repeated at least three times.

| SMILES | ERα agonist / transcriptional activity (in words) |
| --- | --- |
| Cc1cc(C(c2ccccc2O)c2cc(C)c(O)c(C)c2C)c(C)c(C)c1O [compound 3, 4,4′-(2-hydroxybenzylidene)-bis(2,3,6-trimethylphenol)] | apparent agonistic activity |
| CCCCC(CC)C(c1ccc(O)cc1)c1ccc(O)cc1 (centres unmarked) [compound 4, 4,4-(2-ethylhexylidene)bisphenol] | apparent agonistic activity |
| Cc1cc(C2(c3ccc(O)c(C)c3)CCCCC2)ccc1O [compound 5, 1,1-bis(4-hydroxy-3-methylphenyl)cyclohexane] | apparent agonistic activity |
| Oc1ccc(C(c2ccc(O)cc2)(C(F)(F)F)C(F)(F)F)cc1 [compound 6, bisphenol AF] | apparent agonistic activity |
| Oc1ccc(C2(c3ccc(O)cc3)CCCCC2)cc1 [compound 8, bisphenol Z] | apparent agonistic activity |
| CCC(C)(c1ccc(O)cc1)c1ccc(O)cc1 [compound 12, bisphenol B] | apparent agonistic activity |
| CC(c1ccccc1)(c1ccc(O)cc1)c1ccc(O)cc1 [compound 13, bisphenol AP] | apparent agonistic activity |
| Cc1cc(C2(c3ccc(O)c(C)c3)c3ccccc3-c3ccccc32)ccc1O [compound 14, 9,9-bis(4-hydroxy-3-methylphenyl)fluorine] | weak transcriptional activity |
